Assay results: US9273095B2, “Antibiotic peptide and preparation method therefor and application therefor” (priority 2011, dated 2016)
Read-outs that look alike come from different tables or passages of the source. Non-standard residues stand in square brackets, D forms with d. Residues, ends and D or L forms follow the SMILES beside them.

Tests used:
Format in all cases: cell-based
Enterococcus faecium = assay: microbe, parasite or virus in culture
Procedure: (§1) The experimental strains are 37 standard strains preserved in lab and clinical isolated bacteria, including drug-resistant bacteria and quality-control bacteria selecting Staphylococcus aureus ATCC29213, Enterococcus faecalis ATCC29212, Escherichia coli ATCC25922, Pseudomonas aeruginosa ATCC27853 and klebsiella pneumoniae ATCC700603.
(§2) (1) Sensitivity test is conducted with two-fold agar dilution method and Denlay multipoint inoculator. Test bacteria are cultured with nutrient broth and brain heart infusion.
(§3) (2) The drug is double diluted into different concentration with MH broth after dissolved and then placed in the plate respectively.
(§4) (4) After solidification of the culture medium in the plate, test bacteria (10^4CFU/point) are inoculated by multipoint inoculator and cultured for 18 hours at constant 35° C. Then observe the results.

Enterococcus faecalis = assay: organism not typed; conditions: read-out: MIC
Procedure: as §1, §2, §3, §4

Typhoid bacillus H901 = assay: microbe, parasite or virus in culture
Outline: (§5)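 Two-fold agar dilution method on MH agar (0.03–128 μg/ml final), 10^4CFU/point, 18 hours at 35° C.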

Escherichia coli = assay: microbe, parasite or virus in culture
Outline: (§6)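 Testing covers laboratory standard strains and clinical isolates, resistant bacteria among them, with ATCC quality-control strains. Each is multipoint-inoculated at 10^4CFU/point onto MH agar holding two-fold drug dilutions (0.03–128 μg/ml) and incubated 18 hours at 35° C.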

Proteus vulgaris = assay: microbe, parasite or virus in culture; conditions: Proteus vulgaris 56
Outline: as §5

Salmonella typhimurium = assay: microbe, parasite or virus in culture; conditions: Salmonella typhimurium
Outline: as §5

Shigella sonnei = assay: microbe, parasite or virus in culture; conditions: Shigella sonnei strains 51592
Outline: as §5

Enterobacter aerogenes = assay: microbe, parasite or virus in culture; conditions: Enterobacter aerogenes 45102
Outline: as §5

Shigella = assay: microbe, parasite or virus in culture
Outline: as §5

Pseudomonas aeruginosa = assay: microbe, parasite or virus in culture
Outline: as §6

Enterobacter cloacae = assay: microbe, parasite or virus in culture; conditions: Enterobacter cloacae 45301
Outline: as §5

[1] = test system: Acinetobacter calcoaceticus; assay: microbe, parasite or virus in culture; conditions: Acinetobacter calcoaceticus25001
Outline: as §5

Serratia marcescens = assay: microbe, parasite or virus in culture; conditions: Serratia marcescens 41002
Outline: as §5

Staphylococcus aureus = assay: microbe, parasite or virus in culture
Outline: as §6

[2] = test system: Staphylococcus epidermidis; assay: microbe, parasite or virus in culture
Outline: as §6

Feilaoti citrobacter = assay: microbe, parasite or virus in culture; conditions: Feilaoti citrobacter 48001
Outline: as §5

Shigella flexneri = assay: microbe, parasite or virus in culture
Outline: as §5

klebsiella pneumoniae = assay: microbe, parasite or virus in culture
Outline: as §6

candida krusei = assay: microbe, parasite or virus in culture
[3] = 06-12 (VREF) Vancomycin-resistant enterococci
[4] = 06-71 (VRE) Vancomycin-resistant Enterococci
[5] = Enterococcus faecalis ATCC29212
[6] = HH22* (AMEs) Aminoglycoside-modifying enzyme
[7] = strain 06-7 (listed under Enterococcus faecalis)
[8] = Pseudomonas aeruginosa TCC27853
[9] = strain 17 (listed under Pseudomonas aeruginosa)
[10] = 08-49(MSSA) Meticillin susceptible staphylococcus aureus
[11] = 08-52(MRSA) Methicillin-resistant staphylococcus aureus
[12] = Staphylococcus aureus ATCC25923
[13] = Staphylococcus aureus ATCC29213
[14] = strain 15 (listed under Staphylococcus aureus)
[15] = 08-17 (MSSE) Meticillin susceptible staphylococcus epidermidis
[16] = 08-18 (MRSE) Methicillin-resistant staphylococcus epidermidis
[17] = (MRSE) Methicillin-resistant Staphylococcus epidermidis ATCC12228
[18] = 08-2 (ESBLs) (listed under klebsiella pneumoniae)
[19] = klebsiella pneumoniae ATCC700603
[20] = strain 7 (listed under klebsiella pneumoniae)

CC[C@@H](C)[C@@H](NC(=O)[C@@H](CCCCN)NC(=O)[C@@H](CO)NC(=O)[C@@H](Cc1ccccc1)NC(=O)[C@@H](CC(C)C)NC(=O)[C@@H](CCCCN)NC(=O)[C@@H](CCC(=O)O)NC(=O)[C@@H](CC(C)C)NC(=O)[C@@H](CCCNC(=N)N)NC(=O)[C@@H](CCCCN)NC(=O)[C@@H](Cc1ccccc1)NC(C)=O)C(=O)N[C@H](Cc1c[nH]c2ccccc12)C(=O)N[C@H](CC(N)=O)C(=O)N[C@H](Cc1c[nH]c2ccccc12)C(=O)N[C@H](CCCCN)C(N)=O [PL-17] (Ac-[dF][dK][dR][dL][dE][dK][dL][dF][dS][dK][dI][dW][dN][dW][dK]-NH2)
2.7 µM: MIC (Pseudomonas aeruginosa; [9]) | MIC (Feilaoti citrobacter) | MIC (klebsiella pneumoniae; [19])
1.3 µM: MIC (Salmonella typhimurium) | MIC (Enterobacter aerogenes) | MIC (Pseudomonas aeruginosa; [8]) | MIC (Enterobacter cloacae) | MIC [1] | MIC (Serratia marcescens)
8 µg/mL: Minimal inhibitory concentration (candida krusei; JLC 30366 candida krusei) | Minimal inhibitory concentration (candida krusei; JLC 30383 candida krusei)
0.7 µM: MIC (Typhoid bacillus H901) | MIC (Escherichia coli; 276 (TEM-52)) | MIC (Staphylococcus aureus; [10])
10.7 µM: MIC (Enterococcus faecium; Enterococcus faecium 06-1) | MIC (Enterococcus faecalis; [6])
5.3 µM: MIC (Enterococcus faecalis; [5]) | MIC (Enterococcus faecalis; [7]) | MIC (Proteus vulgaris) | MIC (Staphylococcus aureus; [11])
1.0 µM: MIC [2, 15] | MIC [2, 16] | MIC [2, 17]
0.3 µM: MIC (Escherichia coli; 272(TEM-88)) | MIC (Escherichia coli; 274 (TEM-15)) | MIC (Shigella sonnei) | MIC (Shigella) | MIC (Staphylococcus aureus; [12]) | MIC (Staphylococcus aureus; [13]) | MIC (Staphylococcus aureus; [14]) | MIC (Shigella flexneri) | MIC (klebsiella pneumoniae; [18]) | MIC (klebsiella pneumoniae; [20])
1.7 µM: MIC (Enterococcus faecium; [3]) | MIC (Enterococcus faecalis; [4])

Ac-FKRLEKLFSKIWNWK-NH2 [PL-12]
0.3 µM: MIC (Enterococcus faecalis; [4]) | MIC (Enterococcus faecalis; [6]) | MIC (Proteus vulgaris) | MIC (Enterobacter cloacae)
5.3 µM: MIC (Enterococcus faecium; Enterococcus faecium 06-1) | MIC (Enterococcus faecalis; [7]) | MIC (Typhoid bacillus H901) | MIC (Salmonella typhimurium) | MIC (Pseudomonas aeruginosa; [8]) | MIC (Feilaoti citrobacter) | MIC (klebsiella pneumoniae; [18]) | MIC (klebsiella pneumoniae; [20])
1.7 µM: MIC (Shigella)
1.3 µM: MIC (Enterococcus faecium; [3]) | MIC (Enterococcus faecalis; [5]) | MIC (Escherichia coli; 274 (TEM-15)) | MIC (Escherichia coli; 276 (TEM-52)) | MIC (Staphylococcus aureus; [11]) | MIC (Staphylococcus aureus; [12]) | MIC (Staphylococcus aureus; [13]) | MIC (Staphylococcus aureus; [14]) | MIC [2, 16] | MIC [2, 17]
8 µg/mL: Minimal inhibitory concentration (candida krusei; JLC 30366 candida krusei)
2.7 µM: MIC (Shigella sonnei) | MIC (Pseudomonas aeruginosa; [9]) | MIC [2, 15] | MIC (Shigella flexneri) | MIC (klebsiella pneumoniae; [19])
16 µg/mL: Minimal inhibitory concentration (candida krusei; JLC 30383 candida krusei)
0.7 µM: MIC (Escherichia coli; 272(TEM-88)) | MIC (Staphylococcus aureus; [10])
0.03 µM: MIC (Enterobacter aerogenes) | MIC [1] | MIC (Serratia marcescens)
